We go through 9 compounds from patent US12673944B2, “Compounds having inhibitory activity against glucosylceramide synthase or pharmaceutically acceptable salt thereof, processes for preparing the same, and pharmaceutical compositions comprising the same” (YUHAN CORPORATION, priority 2019, dated 2026).

Structures are written as SMILES. pIC50: −log10 of the molar value.

Test [1] has as its target T1, glucosylceramide synthase (GCS) (Homo sapiens, UniProt Q16739).
T1 construct: The obtained supernatant was used; host or cells: A549 cells (lysate supernatant after sonication)
T1 sequence (Q16739 1-394): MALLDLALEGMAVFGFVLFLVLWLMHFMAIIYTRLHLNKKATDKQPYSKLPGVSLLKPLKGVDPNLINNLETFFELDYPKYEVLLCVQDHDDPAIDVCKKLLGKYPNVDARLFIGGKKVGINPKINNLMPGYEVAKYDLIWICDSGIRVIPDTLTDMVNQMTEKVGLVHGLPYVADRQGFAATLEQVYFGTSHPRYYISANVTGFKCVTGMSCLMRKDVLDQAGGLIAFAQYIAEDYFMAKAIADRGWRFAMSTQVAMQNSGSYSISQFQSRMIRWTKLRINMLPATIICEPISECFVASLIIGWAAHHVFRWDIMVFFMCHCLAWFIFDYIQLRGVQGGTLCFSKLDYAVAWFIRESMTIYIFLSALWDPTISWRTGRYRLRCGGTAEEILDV
In words: GCS enzyme inhibition assay (A549 cell lysate, NBD C6-ceramide, HPLC fluorescence). The conditions noted are these: inhibitory activity against GCS, 37° C., 90 minutes. Format: biochemical. An outline of the steps: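 Percent GCS activity was derived from the GlcCer share of Cer plus GlcCer areas, scaled from ibiglustat (0%) to DMSO (100%). Enzyme came from sonicated A549 lysate in 50 mM HEPES pH 7.3; 90 min incubation at 37° C, chloroform/methanol stop and extraction.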

Test [2] concerns GM1 production in Jurkat cells. In words: cells. The class given is cell-based. The conditions noted are these: Homo sapiens, Jurkat, 72 h.

One may read the pIC50 as −log10 of the IC50, conventionally taken in molar units. For `COc1ccc(Cl)c(-c2cc3c(cc2OC)C(NC(=O)O[C@@H]2CN4CCC2CC4)C(C)(C)CO3)c1` (stereo partly drawn) [Example 359, (S)-quinuclidin-3-yl (7-(2-chloro-5-methoxyphenyl)-6-methoxy-3,3-dimethylchroman-4-yl)carbamate], the pIC50 in test [1] was 9.21; in test [2], 8.62.
On to `COc1ccc(-c2cc3c(cc2OC)C(NC(=O)O[C@@H]2CN4CCC2CC4)C(C)(C)CO3)c(F)c1` (stereo partly drawn) [Example 360, (S)-quinuclidin-3-yl (7-(2-fluoro-4-methoxyphenyl)-6-methoxy-3,3-dimethylchroman-4-yl)carbamate], for which the pIC50 is 9.26 in test [1] and 8.00 in test [2].
Regarding `COc1ccc(-c2cc3c(cc2OC)C(NC(=O)O[C@@H]2CN4CCC2CC4)C(C)(C)CO3)c(C)c1` (stereo partly drawn) [Example 361, (S)-quinuclidin-3-yl (6-methoxy-7-(4-methoxy-2-methylphenyl)-3,3-dimethylchroman-4-yl)carbamate], the negative logarithm of the IC50 (pIC50) in test [1] is 9.00; in test [2], 8.07.
In the same order, the values of `CCCCc1ccc(-c2cc3c(cc2OC)C(NC(=O)O[C@@H]2CN4CCC2CC4)C(C)(C)CO3)cc1` (stereo partly drawn) [Example 362, (S)-quinuclidin-3-yl (7-(4-butylphenyl)-6-methoxy-3,3-dimethylchroman-4-yl)carbamate] are 9.96 and 9.15.
Take `COc1cc2c(cc1-c1ccc(OC(C)C)c(Cl)c1)OCC(C)(C)C2NC(=O)O[C@@H]1CN2CCC1CC2` (stereo partly drawn) [Example 363, (S)-quinuclidin-3-yl (7-(3-chloro-4-isopropoxyphenyl)-6-methoxy-3,3-dimethylchroman-4-yl)carbamate]: the pIC50 in test [1] was 9.12; in test [2], 8.06.
On to `COc1cc2c(cc1-c1ccc(C(C)(C)C)cc1)OCC(C)(C)C2NC(=O)O[C@@H]1CN2CCC1CC2` (stereo partly drawn) [Example 364, (S)-quinuclidin-3-yl (7-(4-(tert-butyl)phenyl)-6-methoxy-3,3-dimethylchroman-4-yl)carbamate], for which the pIC50 was 9.37 in test [1] and 8.70 in test [2].
In the same order, the values of `COc1cc2c(cc1-c1cc(C)c(OC)c(C)c1)OCC(C)(C)C2NC(=O)O[C@@H]1CN2CCC1CC2` (stereo partly drawn) [Example 365, (S)-quinuclidin-3-yl (6-methoxy-7-(4-methoxy-3,5-dimethylphenyl)-3,3-dimethylchroman-4-yl)carbamate] are 8.92 and 7.84.
In the same order, the values of `COc1cc2c(cc1-c1ccc(OCC(C)C)cc1)OCC(C)(C)C2NC(=O)O[C@@H]1CN2CCC1CC2` (stereo partly drawn) [Example 366, (S)-quinuclidin-3-yl (7-(4-isobutoxyphenyl)-6-methoxy-3,3-dimethylchroman-4-yl)carbamate] are 9.72 and 9.15.
In the same order, the values of `COc1cc2c(cc1-c1ccc(OC(C)C)nc1)OCC(C)(C)C2NC(=O)O[C@@H]1CN2CCC1CC2` (stereo partly drawn) [Example 367, (S)-quinuclidin-3-yl (7-(6-isopropoxypyridin-3-yl)-6-methoxy-3,3-dimethylchroman-4-yl)carbamate] are 9.66 and 8.49.
